Key:
Assay in all cases: relative viability (nuclei count vs DMSO), 5 days (fraction); higher = more cells survive
[1] = test system: NCI-H2405
How it was run: (§1)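 After 5 days of treatment, lung cancer cells in 1536-well plates were fixed and stained in a single step (final 0.05% Triton X-100, 1% formaldehyde, 1 ug/ml Hoechst) and their nuclei counted on 4× images. Treatment had been applied by pin tool the day after seeding as one drug alone or as a fixed anchor-drug dose with five library-drug doses (not always all listed) in √10 steps. Relative viability is the nuclei count of treated wells divided by that of vehicle wells, and values are medians of duplicate plates.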

[2] = test system: LC-2-ad
How it was run: as §1

[3] = test system: NCI-H2087
How it was run: as §1

[4] = test system: COR-L 105
How it was run: as §1

[5] = test system: NCI-H23
How it was run: as §1

[6] = test system: 201T
How it was run: as §1

[7] = test system: NCI-H650
How it was run: as §1

[8] = test system: NCI-H1915
How it was run: as §1

[9] = test system: H3255
How it was run: as §1

[10] = test system: EPLC-272H
How it was run: as §1

[11] = test system: NCI-H2126
How it was run: as §1

[12] = test system: HCC-827
How it was run: as §1

[13] = test system: NCI-H661
How it was run: as §1

[14] = test system: NCI-H2347
How it was run: as §1

[15] = test system: ChaGo-K-1
How it was run: as §1

[16] = test system: RERF-LC-KJ
How it was run: as §1

[17] = test system: NCI-H647
How it was run: as §1

[18] = test system: HCC-78
How it was run: as §1

[19] = test system: LCLC-97TM1
How it was run: as §1

[20] = test system: PC-14
How it was run: as §1

[21] = test system: NCI-H1666
How it was run: as §1

[22] = test system: NCI-H520
How it was run: as §1

## O=c1cc(N2CCOCC2)oc2c(-c3cccc4c3sc3ccccc34)cccc12 + O=C(CCCCCCC(=O)Nc1ccccc1)NO [Vorinostat] (partner 1 µM)
[1]; first compound 0.01 µM
  relative viability: 1.01
[1]; first compound 0.03162 µM
  relative viability: 1.04
[1]; first compound 0.1 µM
  relative viability: 1.04
[1]; first compound 0.3162 µM
  relative viability: 1.01
[1]; first compound 1 µM
  relative viability: 0.736
[2]; first compound 0.01 µM
  relative viability: 0.703
[2]; first compound 0.03162 µM
  relative viability: 0.72
[2]; first compound 0.1 µM
  relative viability: 0.798
[2]; first compound 0.3162 µM
  relative viability: 0.647
[2]; first compound 1 µM
  relative viability: 0.741
[3]; first compound 0.01 µM
  relative viability: 0.474
[3]; first compound 0.03162 µM
  relative viability: 0.637
[3]; first compound 0.1 µM
  relative viability: 0.8
[3]; first compound 0.3162 µM
  relative viability: 0.64
[3]; first compound 1 µM
  relative viability: 0.745
[4]; first compound 0.01 µM
  relative viability: 0.764
[4]; first compound 0.03162 µM
  relative viability: 0.788
[4]; first compound 0.1 µM
  relative viability: 0.899
[4]; first compound 0.3162 µM
  relative viability: 0.911
[4]; first compound 1 µM
  relative viability: 0.918
[5]; first compound 0.01 µM
  relative viability: 0.555
[5]; first compound 0.03162 µM
  relative viability: 0.68
[5]; first compound 0.3162 µM
  relative viability: 0.795
[5]; first compound 1 µM
  relative viability: 0.537
[6]; first compound 0.01 µM
  relative viability: 0.961
[6]; first compound 0.03162 µM
  relative viability: 0.95
[6]; first compound 0.1 µM
  relative viability: 0.982
[6]; first compound 0.3162 µM
  relative viability: 0.959
[6]; first compound 1 µM
  relative viability: 0.915
[7]; first compound 0.01 µM
  relative viability: 0.537
[7]; first compound 0.03162 µM
  relative viability: 0.412
[7]; first compound 0.3162 µM
  relative viability: 0.496
[7]; first compound 1 µM
  relative viability: 0.402
[8]; first compound 0.01 µM
  relative viability: 0.497
[8]; first compound 0.03162 µM
  relative viability: 0.596
[8]; first compound 0.1 µM
  relative viability: 0.521
[8]; first compound 0.3162 µM
  relative viability: 0.516
[8]; first compound 1 µM
  relative viability: 0.544
[9]; first compound 0.01 µM
  relative viability: 0.83
[9]; first compound 0.03162 µM
  relative viability: 0.837
[9]; first compound 0.1 µM
  relative viability: 0.759
[9]; first compound 0.3162 µM
  relative viability: 0.765
[9]; first compound 1 µM
  relative viability: 0.558
[10]; first compound 0.01 µM
  relative viability: 0.539
[10]; first compound 0.03162 µM
  relative viability: 0.4
[10]; first compound 0.1 µM
  relative viability: 0.54
[10]; first compound 0.3162 µM
  relative viability: 0.358
[10]; first compound 1 µM
  relative viability: 0.5
[11]; first compound 0.01 µM
  relative viability: 0.84
[11]; first compound 0.03162 µM
  relative viability: 0.751
[11]; first compound 0.1 µM
  relative viability: 0.668
[11]; first compound 0.3162 µM
  relative viability: 0.734
[11]; first compound 1 µM
  relative viability: 0.771
[12]; first compound 0.01 µM
  relative viability: 0.897
[12]; first compound 0.03162 µM
  relative viability: 0.848
[12]; first compound 0.1 µM
  relative viability: 0.643
[12]; first compound 0.3162 µM
  relative viability: 0.779
[12]; first compound 1 µM
  relative viability: 0.774
[13]; first compound 0.01 µM
  relative viability: 0.761
[13]; first compound 0.03162 µM
  relative viability: 0.793
[13]; first compound 0.1 µM
  relative viability: 0.836
[13]; first compound 0.3162 µM
  relative viability: 0.79
[13]; first compound 1 µM
  relative viability: 0.765
[14]; first compound 0.01 µM
  relative viability: 0.622
[14]; first compound 0.03162 µM
  relative viability: 0.547
[14]; first compound 0.1 µM
  relative viability: 0.534
[14]; first compound 0.3162 µM
  relative viability: 0.595
[14]; first compound 1 µM
  relative viability: 0.635
[15]; first compound 0.01 µM
  relative viability: 0.69
[15]; first compound 0.03162 µM
  relative viability: 0.785
[15]; first compound 0.1 µM
  relative viability: 0.578
[15]; first compound 0.3162 µM
  relative viability: 0.813
[15]; first compound 1 µM
  relative viability: 0.789
[16]; first compound 0.01 µM
  relative viability: 0.76
[16]; first compound 0.03162 µM
  relative viability: 0.694
[16]; first compound 0.1 µM
  relative viability: 0.775
[16]; first compound 0.3162 µM
  relative viability: 0.64
[16]; first compound 1 µM
  relative viability: 0.707
[17]; first compound 0.01 µM
  relative viability: 0.662
[17]; first compound 0.03162 µM
  relative viability: 0.708
[17]; first compound 0.1 µM
  relative viability: 0.462
[17]; first compound 0.3162 µM
  relative viability: 0.695
[17]; first compound 1 µM
  relative viability: 0.757
[18]; first compound 0.01 µM
  relative viability: 0.428
[18]; first compound 0.03162 µM
  relative viability: 0.406
[18]; first compound 0.1 µM
  relative viability: 0.44
[18]; first compound 0.3162 µM
  relative viability: 0.464
[18]; first compound 1 µM
  relative viability: 0.48
[19]; first compound 0.01 µM
  relative viability: 0.699
[19]; first compound 0.03162 µM
  relative viability: 0.725
[19]; first compound 0.1 µM
  relative viability: 0.3
[19]; first compound 0.3162 µM
  relative viability: 0.66
[19]; first compound 1 µM
  relative viability: 0.784
[20]; first compound 0.01 µM
  relative viability: 0.682
[20]; first compound 0.03162 µM
  relative viability: 0.75
[20]; first compound 0.1 µM
  relative viability: 0.713
[20]; first compound 0.3162 µM
  relative viability: 0.84
[20]; first compound 1 µM
  relative viability: 0.768
[21]; first compound 0.01 µM
  relative viability: 0.985
[21]; first compound 0.03162 µM
  relative viability: 1.04
[21]; first compound 0.1 µM
  relative viability: 1.19
[21]; first compound 0.3162 µM
  relative viability: 1.03
[21]; first compound 1 µM
  relative viability: 1.04
[22]; first compound 0.01 µM
  relative viability: 0.775
[22]; first compound 0.03162 µM
  relative viability: 0.755
[22]; first compound 0.1 µM
  relative viability: 0.689
[22]; first compound 0.3162 µM
  relative viability: 0.728
[22]; first compound 1 µM
  relative viability: 0.794

Source: the supplement of paper PMC10307832
